Data published in patent US8946247B2, “Quinazoline carboxamide azetidines” (Merck Patent GmbH, priority 2010, dated 2015).

Tests used:
P70S6K (T412E mutant) = biological target: T1, P70S6K (T412E mutant) (Homo sapiens, UniProt P23443, T412E); test: p70S6K Enzyme Assay; type: biochemical; conditions: 24 μM ATP, 90 min at 25° C., Caliper mobility shift
T1 construct: purchased Millipore
Summary of the method: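 Mobile-shift assay: 3 nM P70S6K T412E with 24 μM ATP and 1 μM FITC-labelled S6-derived peptide in Hepes pH 7.5, MgCl2, DTT, Brij; 90 min at 25 °C, stopped with EDTA. Substrate/phosphopeptide ratio separated electrophoretically on Caliper LabChip; IC50 determined.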

Aurora B = biological target: T2, Aurora B (Homo sapiens, UniProt Q96GD4); test: Aurora B Kinase Assay; type: biochemical; conditions: GST-Aurora B (1-344), 10 uM ATP, 90 min at 25 C
T2 construct: GST-Aurora B (1-344 amino acids); GST (N); purchased Carna Biosciences 05-102
Summary of the method: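 GST-Aurora B (aa 1-344, with His-INCENP) at 0.1 ng/ul, 10 uM ATP and 1 uM FITC-LRRASLG peptide in HEPES pH 7.5 with MgCl2 and DTT, 90 min at 25 C, stopped with EDTA. Substrate-to-product conversion read by off-chip mobility shift; IC50 from sigmoidal dose-response fit.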

Akt1 = biological target: T3, Akt1 (Homo sapiens, UniProt P31749); test: AKT/PKB Kinase Assay; type: biochemical; conditions: His-AKT (Full Length), 160 uM ATP, 90 min at 25 C
T3 construct: 0.1 ng/ul His-AKT (Full Length), (Invitrogen, Part #P2999, Lot #641228C); His; purchased Invitrogen P2999
Summary of the method: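 Full-length His-tagged human AKT1 (0.1 ng/ul) with 1 uM FITC-labelled GRPRTSSFAEG peptide, 160 uM ATP, 1 mM MgCl2, 1 mM DTT in 100 mM HEPES pH 7.5, 90 min at 25 C, EDTA stop. Substrate/product peptides separated by off-chip mobility shift; IC50 fitted from % conversion dose-response.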

pS6 MDA-MB-468 = test: Cellular Activity Assay (phospho-S6 in MDA-MB-468 cells); type: cell-based; conditions: Homo sapiens, 2 hr compound incubation, percent pS6-positive cells
Summary of the method: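 MDA-MB-468 cells treated with compound for 2 hr, fixed, then immunostained for phospho-S6 with propidium iodide counterstain. Green (pS6) and red (total) cells counted by laser-scanning cytometry; IC50 derived from percent pS6-positive cells versus compound concentration.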

T1 sequence (P23443 1-421 T412E limits assumed): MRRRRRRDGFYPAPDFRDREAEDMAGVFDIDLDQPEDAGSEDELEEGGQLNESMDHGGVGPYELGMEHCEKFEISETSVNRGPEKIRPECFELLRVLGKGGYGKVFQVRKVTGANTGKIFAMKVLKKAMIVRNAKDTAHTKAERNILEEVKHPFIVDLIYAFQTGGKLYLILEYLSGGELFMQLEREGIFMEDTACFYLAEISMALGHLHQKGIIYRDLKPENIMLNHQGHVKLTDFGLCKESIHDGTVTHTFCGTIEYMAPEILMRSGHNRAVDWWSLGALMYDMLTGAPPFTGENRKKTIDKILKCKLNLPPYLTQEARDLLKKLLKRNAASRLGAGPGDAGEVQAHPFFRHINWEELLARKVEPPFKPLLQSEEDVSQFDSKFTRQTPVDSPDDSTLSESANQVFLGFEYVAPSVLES
T3 sequence (P31749 whole entry): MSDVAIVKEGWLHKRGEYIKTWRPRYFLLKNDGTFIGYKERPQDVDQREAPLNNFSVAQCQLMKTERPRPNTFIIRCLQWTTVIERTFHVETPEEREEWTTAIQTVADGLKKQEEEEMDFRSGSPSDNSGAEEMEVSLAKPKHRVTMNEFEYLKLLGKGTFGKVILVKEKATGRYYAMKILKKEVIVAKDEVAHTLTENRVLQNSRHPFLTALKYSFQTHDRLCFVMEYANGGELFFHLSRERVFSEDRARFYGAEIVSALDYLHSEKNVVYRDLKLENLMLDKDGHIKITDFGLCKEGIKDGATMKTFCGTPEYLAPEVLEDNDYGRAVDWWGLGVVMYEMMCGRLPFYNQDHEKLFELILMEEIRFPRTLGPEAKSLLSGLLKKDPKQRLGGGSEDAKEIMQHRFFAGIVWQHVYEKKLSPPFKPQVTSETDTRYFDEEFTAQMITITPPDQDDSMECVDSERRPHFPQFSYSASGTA
T2 sequence (Q96GD4 whole entry, the tested form may be a part): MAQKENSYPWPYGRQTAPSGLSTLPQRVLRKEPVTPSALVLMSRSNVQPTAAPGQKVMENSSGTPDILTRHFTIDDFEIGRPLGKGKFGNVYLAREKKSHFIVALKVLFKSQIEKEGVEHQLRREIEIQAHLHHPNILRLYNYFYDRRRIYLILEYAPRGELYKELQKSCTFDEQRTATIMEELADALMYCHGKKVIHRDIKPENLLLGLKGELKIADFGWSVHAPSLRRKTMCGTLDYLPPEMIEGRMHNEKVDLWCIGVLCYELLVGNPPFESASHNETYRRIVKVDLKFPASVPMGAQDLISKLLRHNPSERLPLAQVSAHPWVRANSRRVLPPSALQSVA
T2 sequence (Q9NQS7 803-918 partner limits assumed): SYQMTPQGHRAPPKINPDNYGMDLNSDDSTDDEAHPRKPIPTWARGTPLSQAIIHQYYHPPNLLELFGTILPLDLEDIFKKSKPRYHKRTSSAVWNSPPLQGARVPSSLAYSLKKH

SMILES | IC50 (P70S6K (T412E mutant)) [nM] | IC50 (Aurora B) [nM] | IC50 (Akt1) [nM] | IC50 (pS6 MDA-MB-468) [nM]
NC(=O)c1cccc2c(N[C@H](CN3CCC3)c3ccc(Cl)c(C(F)(F)F)c3)ncnc12 [Example 5, 4-[(S)-2-Azetidin-1-yl-1-(4-chloro-3-trifluoromethylphenyl)-ethylamino]-quinazoline-8-carboxylic acid amide] | 0.9 | 100 | 1.4 | 11
NC(=O)c1cccc2c(N[C@H](CN3CCC3)c3ccc(Br)cc3)ncnc12 [Example 8, 4-[(S)-2-Azetidin-1-yl-1-(4-bromophenyl)-ethylamino]-quinazoline-8-carboxylic acid amide] | 1.6 | 65 | 48 | 39
NC(=O)c1cccc2c(N[C@H](CN3CCC3)c3ccc(F)c(Cl)c3)ncnc12 [Example 7, 4-[(S)-2-Azetidin-1-yl-1-(3-chloro-4-fluorophenyl)-ethylamino]-quinazoline-8-carboxylic acid amide] | 1.3 | 58 | 12 | 1.3
NC(=O)c1cccc2c(N[C@H](CN3CCC3)c3ccc(F)c(F)c3)ncnc12 [Example 4, 4-[(S)-2-Azetidin-1-yl-1-(3,4-difluorophenyl)-ethylamino]-quinazoline-8-carboxylic acid amide] | 1.2 | 56 | 4.1 | 74

Further lines, results first:

IC50 (P70S6K (T412E mutant)) [nM] | IC50 (Aurora B) [nM] | IC50 (Akt1) [nM] | IC50 (pS6 MDA-MB-468) [nM] | SMILES
2.8 | 200 | 25 | 130 | NC(=O)c1cccc2c(N[C@H](CN3CCC3)c3cc(F)c(F)c(F)c3)ncnc12 [Example 37, 4-[(S)-2-Azetidin-1-yl-1-(3,4,5-trifluorophenyl)-ethylamino]-quinazoline-8-carboxylic acid amide]
1.5 | 290 | 5.9 | 33 | NC(=O)c1cc(F)cc2c(N[C@H](CN3CCC3)c3ccc(F)c(C(F)(F)F)c3)ncnc12 [Example 45, 4-[(S)-2-Azetidin-1-yl-1-(4-fluoro-3-trifluoromethyl-phenyl)-ethylamino]-6-fluoro-quinazoline-8-carboxylic acid amide]
